Like-named read-outs stand apart in the source and are kept apart here.
Assays:
Assay type in all cases: cell-based
BRD9 [1] = target: T1, BRD9 (Homo sapiens, UniProt Q9H8M2); experiment: BRD9 degradation, HiBiT-BRD9 KI HEK293 (LgBiT) cells, NanoGlo Lytic Endpoint assay (Assay Protocol 1); conditions: for Dmax at 1 µM: HEK293
T1 sequence (Q9H8M2 1-597): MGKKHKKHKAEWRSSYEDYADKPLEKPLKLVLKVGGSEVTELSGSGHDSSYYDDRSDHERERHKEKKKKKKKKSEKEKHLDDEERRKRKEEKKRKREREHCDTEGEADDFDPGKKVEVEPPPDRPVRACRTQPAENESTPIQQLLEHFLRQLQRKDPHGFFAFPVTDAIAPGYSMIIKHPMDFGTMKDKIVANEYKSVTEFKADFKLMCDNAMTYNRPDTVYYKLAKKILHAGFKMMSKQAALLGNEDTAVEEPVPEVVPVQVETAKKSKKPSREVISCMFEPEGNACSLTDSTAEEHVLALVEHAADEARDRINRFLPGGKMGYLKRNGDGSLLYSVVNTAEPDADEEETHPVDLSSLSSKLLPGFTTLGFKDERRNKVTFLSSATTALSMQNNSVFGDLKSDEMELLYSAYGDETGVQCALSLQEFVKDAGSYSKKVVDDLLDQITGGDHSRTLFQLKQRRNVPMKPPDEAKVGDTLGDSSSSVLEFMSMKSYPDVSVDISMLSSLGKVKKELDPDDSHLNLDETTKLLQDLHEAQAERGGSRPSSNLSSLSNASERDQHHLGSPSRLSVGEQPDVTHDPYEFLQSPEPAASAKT
Procedure, shortened: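 HiBiT-tagged BRD9 knock-in HEK293 (LgBiT) cells exposed to compounds for 6 h at 37 °C, 5% CO2. Residual BRD9 measured by HiBiT lytic luminescence. % BRD9 remaining normalised to DMSO-treated cells (high) and no-cell wells (low).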

BRD7 = target: T2, BRD7 (Homo sapiens, UniProt Q9NPI1); experiment: BRD7 degradation, HiBiT-BRD7 KI HEK293 (LgBiT) cells, NanoGlo Lytic Endpoint assay (Assay Protocol 1); conditions: HEK293; Table 3; assay 1; 1 μM compound at 5 h of treatment
T2 construct: HiBiT-BRD7 KI HEK293 (LgBiT) Cells (Promega CS3023410); host or cells: HEK293 (LgBiT), HiBiT knock-in at the BRD7 locus
T2 sequence (Q9NPI1 1-651): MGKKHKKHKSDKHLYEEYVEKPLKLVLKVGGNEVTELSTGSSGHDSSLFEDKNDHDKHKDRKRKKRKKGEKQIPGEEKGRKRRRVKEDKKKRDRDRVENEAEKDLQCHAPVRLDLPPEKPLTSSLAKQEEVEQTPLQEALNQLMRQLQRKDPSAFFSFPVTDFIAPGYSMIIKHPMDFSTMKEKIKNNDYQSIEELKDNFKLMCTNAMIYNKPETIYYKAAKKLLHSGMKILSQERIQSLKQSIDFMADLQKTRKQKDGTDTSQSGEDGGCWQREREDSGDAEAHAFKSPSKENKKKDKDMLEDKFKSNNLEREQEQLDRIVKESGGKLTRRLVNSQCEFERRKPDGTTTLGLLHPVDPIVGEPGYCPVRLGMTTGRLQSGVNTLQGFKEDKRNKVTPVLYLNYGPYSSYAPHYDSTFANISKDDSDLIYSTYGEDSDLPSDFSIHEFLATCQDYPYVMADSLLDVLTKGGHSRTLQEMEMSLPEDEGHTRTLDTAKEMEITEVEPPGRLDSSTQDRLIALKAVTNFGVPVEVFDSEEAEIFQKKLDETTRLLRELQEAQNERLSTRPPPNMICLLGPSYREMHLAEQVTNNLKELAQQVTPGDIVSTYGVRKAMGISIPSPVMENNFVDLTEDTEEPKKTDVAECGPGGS
Method: HiBiT-BRD9 KI HEK293 (LgBiT) Cells (Promega CS3023412) were seeded at 8000 cells per well (38 μL) in sterile white bottom 384 well plates (Invitrogen 164610 or Greiner 781080) and incubated overnight at 37° C. with 5% CO2. The next day, compounds were prepared at 1000× final concentration in DMSO and diluted 1:100 in media (DMEM PAN Biotech P04-03550+10% FBS ATCC 302025). […] The lytic buffer was equilibrated to room temperature for 10-15 min before lytic reagent was prepared by adding substrate (1:50) and LgBit protein (1:100) in lytic buffer. 40 μL lytic reagent mix was added to each well of the cel plate and plates were centrifuged briefly at ˜50g. Plates were incubated with shaking (350 RPM) for 12-24 min before reading using the LUM plus module of a BMG Pherastar FSX. Data was analysed using Dotmatics software and % BRD9 remaining was calculated by normalisation to average data from high and low control wells (DMSO treated cels and no cells respectively).
BRD7 degradation was determined in line with the procedure as outlined above for BRD9, with the exception that HiBiT-BRD7 KI HEK293 (LgBiT) Cells (Promega CS3023410) were seeded at 8000 cells per well (CPW) (36 uL) in sterile white bottom 384 well plates (Invitrogen 164610 or Greiner 781080) and incubated overnight at 37° C. with 5% CO2.

BRD9 [2] = target: T1, BRD9; experiment: BRD9 degradation, HiBiT-BRD9 KI HEK293 (LgBiT) cells, NanoGlo Lytic Endpoint assay (Assay Protocol 1); conditions: Table 3; assay 1; 5 h of treatment
BRD4 = target: T3, BRD4 (Homo sapiens, UniProt O60885); experiment: BRD4 degradation, HiBiT-BRD4 HEK293 CRISPR CPM cells, NanoGlo Lytic Endpoint assay (Assay Protocol 1); conditions: Table 3, assay 1
T3 construct: HiBiT-BRD4 HEK293 CRISPR CPM (Promega CS302312); host or cells: HEK293, CRISPR-edited (HiBiT at the BRD4 locus)

COc1cc(-c2cc(C)c(=O)n(C)c2)cc(OC)c1CN1CCN(Cc2cccc3c2CCN(C(=O)/C(C#N)=C/C2(F)CC2)C3C)CC1 (mixture of isomers) [Compound A61, (E/Z)-2-(5-((4-(4-(1,5-dimethyl-6-oxo-1,6-dihydropyridin-3-yl)-2,6-dimethoxybenzyl)piperazin-1-yl)methyl)-1-methyl-1,2,3,4-tetrahydroisoquinoline-2-carbonyl)-3-(1-fluorocyclopropyl) acrylonitrile]
Dmax at 1 µM (BRD9 [1]; Table 2, BRD9 degradation, Assay Protocol 1, 1 μM compound at 6 h of treatment, read-out: Assay 1 Dmax): > 75% | Dmax at 1 µM (BRD9 [1]; Table 3, assay 1, 1 μM compound at 5 h of treatment, read-out: BRD9 Dmax (%)): > 75% | DC50 (BRD9 [1]; Table 2, BRD9 degradation, Assay Protocol 1, 6 h of treatment, read-out: Assay 1 DC50): < 1.25 nM | Dmax at 1 µM (BRD7): < 25% | DC50 (BRD9 [2]): < 1.25 nM | Dmax (BRD4; HEK293, 1 μM compound at 5 h of treatment): 40 to 70% | DC50 (BRD4; 5 h of treatment): 25 to 1000 nM

Source: patent publication US20260092061A1, “COMPOUNDS FOR TARGETED PROTEIN DEGRADATION” (Amphista Therapeutics Limited, priority 2022, published 2026)
